In PubChem BioAssay AID330 (DTP/NCI, 2004):
Several values for one entry are separate records, joined by “and”; a condition that tells them apart may be missing. Equal values may be shown once. Inconclusive results and toxic doses are left out.

Tested on: P388 leukemia ip, CD2F1 mice, survival T/C
Assay: NCI In Vivo Anticancer Drug Screen. Data for tumor model P388 Leukemia (intraperitoneal) in CD2F1 (CDF1) mice
Conditions: endpoint: median survival time, higher = longer survival
In short: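 Mice carrying the transplanted tumor received test compound or vehicle. Survival was recorded in each group, and the value is the treated-group measurement divided by that of the vehicle-treated control group.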

[1] = dose: 60.0 mg/kg/injection, schedule: Q01DX005 (ip), vehicle: saline with Tween-80
[2] = dose: 120.0 mg/kg/injection, schedule: Q01DX005 (ip), vehicle: saline with Tween-80
[3] = dose: 240.0 mg/kg/injection, schedule: Q01DX005 (ip), vehicle: saline with Tween-80
[4] = dose: 50.0 mg/kg/injection, schedule: Q01DX009 (ip), vehicle: saline
[5] = dose: 100.0 mg/kg/injection, schedule: Q01DX009 (ip), vehicle: saline
[6] = dose: 200.0 mg/kg/injection, schedule: Q01DX009 (ip), vehicle: saline

SMILES: COc1cc2c(cc1OC)C(CC1CCN3CCCCC3C1)NCC2 (centres undefined)
- T/C (dose: 87.5 mg/kg/injection, schedule: Q04DX003 (ip), vehicle: saline): 103 % of control

SMILES: CN1C(=O)C2SC(=NNc3ccccc3)SC1C(=O)N2C
- T/C (dose: 100.0 mg/kg/injection, schedule: Q04DX003 (ip), vehicle: saline with Tween-80): 106 % of control
- T/C (dose: 200.0 mg/kg/injection, schedule: Q04DX003 (ip), vehicle: saline with Tween-80): 120 % of control
- T/C (dose: 400.0 mg/kg/injection, schedule: Q04DX003 (ip), vehicle: saline with Tween-80): 100 % of control

SMILES: [CH3][Ga][CH3].[CH3][Ga][CH3].[CH3][Ga][CH3].[CH3][Ga][CH3].[OH3+].[OH3+].[OH3+].[OH3+]
- T/C (dose: 5.0 mg/kg/injection, schedule: Q04DX003 (ip), vehicle: saline with Tween-80): 90 % of control
- T/C (dose: 10.0 mg/kg/injection, schedule: Q04DX003 (ip), vehicle: saline with Tween-80): 90 % of control

SMILES: O=C(Nc1ccc([N+](=O)[O-])cc1)Nc1nncs1
- T/C (dose: 12.5 mg/kg/injection, schedule: Q01DX009 (ip), vehicle: distilled water + Tween-80): 100 % of control
- T/C (dose: 25.0 mg/kg/injection, schedule: Q01DX009 (ip), vehicle: distilled water + Tween-80): 107 % of control and 92 % of control
- T/C (dose: 50.0 mg/kg/injection, schedule: Q01DX009 (ip), vehicle: distilled water + Tween-80): 115 % of control and 119 % of control
- T/C (dose: 100.0 mg/kg/injection, schedule: Q01DX009 (ip), vehicle: distilled water + Tween-80): 119 % of control and 124 % of control
- T/C (dose: 200.0 mg/kg/injection, schedule: Q01DX009 (ip), vehicle: distilled water + Tween-80): 110 % of control

SMILES: CCc1ncnc2cc(OCC3CO3)c(OC)cc12 (centres undefined)
- T/C (dose: 6.25 mg/kg/injection, schedule: Q01DX005 (ip), vehicle: saline): 114 % of control
- T/C (dose: 25.0 mg/kg/injection, schedule: Q01DX005 (ip), vehicle: saline): 155 % of control and 158 % of control
- T/C (dose: 50.0 mg/kg/injection, schedule: Q01DX005 (ip), vehicle: saline): 154 % of control and 158 % of control and 182 % of control

SMILES: COC(=O)N(c1ccccc1)c1ccccn1
- T/C [1]: 106 % of control
- T/C [2]: 97 % of control
- T/C [3]: 100 % of control

SMILES: N#Cc1c(=O)[nH]nc2c3ccccc3c3ccccc3c12
- T/C (dose: 100.0 mg/kg/injection, schedule: Q04DX002 (ip), vehicle: saline with Tween-80): 92 % of control
- T/C (dose: 200.0 mg/kg/injection, schedule: Q04DX002 (ip), vehicle: saline with Tween-80): 95 % of control
- T/C (dose: 400.0 mg/kg/injection, schedule: Q04DX002 (ip), vehicle: saline with Tween-80): 96 % of control

SMILES: NC(Cc1ccc(Cl)cc1)c1nn[nH]n1 (centres undefined)
- T/C (dose: 25.0 mg/kg/injection, schedule: Q01DX009 (ip), vehicle: saline with Tween-80): 99 % of control
- T/C (dose: 50.0 mg/kg/injection, schedule: Q01DX009 (ip), vehicle: saline with Tween-80): 99 % of control
- T/C (dose: 100.0 mg/kg/injection, schedule: Q01DX009 (ip), vehicle: saline with Tween-80): 101 % of control

SMILES: CSC(SC)(C(=O)O)c1cc(C)no1
- T/C [1]: 107 % of control
- T/C [2]: 102 % of control
- T/C [3]: 102 % of control

SMILES: C[C@@H]1C[C@H](C)OC(CCl)O1 (some centres undefined)
- T/C (dose: 60.0 mg/kg/injection, schedule: Q01DX005 (ip), vehicle: saline): 100 % of control
- T/C (dose: 120.0 mg/kg/injection, schedule: Q01DX005 (ip), vehicle: saline): 102 % of control
- T/C (dose: 240.0 mg/kg/injection, schedule: Q01DX005 (ip), vehicle: saline): 98 % of control

SMILES: FC(F)(F)c1cccc(NC(=S)SCc2ccc(Cl)c(Cl)c2)c1
- T/C (dose: 12.5 mg/kg/injection, schedule: Q01DX009 (ip), vehicle: saline): 95 % of control
- T/C (dose: 25.0 mg/kg/injection, schedule: Q01DX009 (ip), vehicle: saline): 89 % of control
- T/C [4]: 90 % of control
- T/C (dose: 50.0 mg/kg/injection, schedule: Q01DX009 (ip), vehicle: suspension in saline): 89 % of control
- T/C [5]: 90 % of control
- T/C [6]: 100 % of control
- T/C (dose: 200.0 mg/kg/injection, schedule: Q01DX009 (ip), vehicle: suspension in saline): 97 % of control

SMILES: COc1cc2cnc(-c3ccncc3)cc2cc1OC
- T/C (dose: 100.0 mg/kg/injection, schedule: Q04DX003 (ip), vehicle: saline): 95 % of control
- T/C (dose: 200.0 mg/kg/injection, schedule: Q04DX003 (ip), vehicle: saline): 108 % of control

SMILES: COC1=Cc2c(oc3c(C(C)(C)C)cc(OC)cc23)OC(C(C)(C)C)=C1
- T/C [4]: 104 % of control
- T/C [5]: 100 % of control
- T/C [6]: 100 % of control

SMILES: COC1=CCCC(C(C)=O)C1Sc1ccccc1 (centres undefined)
- T/C (dose: 100.0 mg/kg/injection, schedule: Q01DX001 (ip), vehicle: saline): 100 % of control
- T/C (dose: 200.0 mg/kg/injection, schedule: Q01DX001 (ip), vehicle: saline): 102 % of control
- T/C (dose: 400.0 mg/kg/injection, schedule: Q01DX001 (ip), vehicle: saline): 100 % of control
